ChEMBL document CHEMBL3885861, “Open TG-GATES”

Species on record: Rattus norvegicus
Experiment: Open TG-GATES - Regimen: Single
Assay type: toxicity, organism-based, Sprague-Dawley
Set-up: regimen Single, gender Male, age 6 weeks
Details: in vivo, po, 300 mg/kg, route gavage, dose level Middle; for APTT / Bas / Eos / Fbg / Hb / Ht / Lym / MCH / MCHC / MCV / Mono / Neu / PT / Plat / RBC / Ret / WBC: tissue Blood; for KIDNEY_L / KIDNEY_R / KIDNEY_TOTAL: tissue Kidney; for LIVER: tissue Liver; for A/G / ALP / ALT / AST / BUN / CRE / Ca / Cl / DBIL / GLC / IP / K / LDH / Na / PL / RALB / TBIL / TC / TG / TP / gamma-GTP: tissue Plasma

COC1=CC(=O)C[C@@H](C)[C@]12Oc1c(Cl)c(OC)cc(OC)c1C2=O [GRISEOFULVIN]
TERMINAL_BW (3 h): 212.4 g | APTT (3 h): 18.3 s | Bas (3 h): 0% | Eos (3 h): 1.2% | Fbg (3 h): 229.2 mg/dL | Hb (3 h): 12.7 g/dL | Ht (3 h): 37.4% | Lym (3 h): 71.6% | MCH (3 h): 21.5 pg | MCHC (3 h): 34.1% | MCV (3 h): 63.1 fL | Mono (3 h): 3.4% | Neu (3 h): 23.2% | PT (3 h): 12.9 s | Plat (3 h): 130.7 x10_4/uL | RBC (3 h): 592 x10_4/ul | Ret (3 h): 7.8% | WBC (3 h): 110.1 x10_2/uL | KIDNEY_L (3 h): 0.9 g | KIDNEY_R (3 h): 0.9 g | KIDNEY_TOTAL (3 h): 1.9 g | LIVER (3 h): 9.7 g | A/G (3 h): 1.6 | ALP (3 h): 1144 IU/L | ALT (3 h): 40.8 IU/L | AST (3 h): 69.2 IU/L | BUN (3 h): 11.2 mg/dL | CRE (3 h): 0.3 mg/dL | Ca (3 h): 11 mg/dL | Cl (3 h): 104.2 meq/L | DBIL (3 h): 0.2 mg/dL | GLC (3 h): 190.4 mg/dL | IP (3 h): 8.7 mg/dL | K (3 h): 4 meq/L | LDH (3 h): 113.8 IU/L | Na (3 h): 140.8 meq/L | PL (3 h): 175.8 mg/dL | RALB (3 h): 3.3 g/dL | TBIL (3 h): 0.2 mg/dL | TC (3 h): 84.8 mg/dL | TG (3 h): 134.8 mg/dL | TP (3 h): 5.3 g/dL | gamma-GTP (3 h): 1.2 IU/L | TERMINAL_BW (6 h): 212.5 g | APTT (6 h): 17.7 s | Bas (6 h): 0% | Eos (6 h): 1% | Fbg (6 h): 220.2 mg/dL | Hb (6 h): 12.8 g/dL | Ht (6 h): 38.1% | Lym (6 h): 72.6% | MCH (6 h): 21.8 pg | MCHC (6 h): 33.6% | MCV (6 h): 64.7 fL | Mono (6 h): 3.6% | Neu (6 h): 22.4% | PT (6 h): 13.1 s | Plat (6 h): 129.2 x10_4/uL | RBC (6 h): 588.6 x10_4/ul | Ret (6 h): 7.9% | WBC (6 h): 82.9 x10_2/uL | KIDNEY_L (6 h): 1 g | KIDNEY_R (6 h): 1 g | KIDNEY_TOTAL (6 h): 2 g | LIVER (6 h): 9.5 g | A/G (6 h): 1.8 | ALP (6 h): 1072.4 IU/L | ALT (6 h): 37.2 IU/L | AST (6 h): 68.4 IU/L | BUN (6 h): 10.2 mg/dL | CRE (6 h): 0.4 mg/dL | Ca (6 h): 10.8 mg/dL | Cl (6 h): 103.2 meq/L | DBIL (6 h): 0.096 mg/dL | GLC (6 h): 205.6 mg/dL | IP (6 h): 9.7 mg/dL | K (6 h): 4 meq/L | LDH (6 h): 139.2 IU/L | Na (6 h): 141.4 meq/L | PL (6 h): 150.6 mg/dL | RALB (6 h): 3.4 g/dL | TBIL (6 h): 0.2 mg/dL | TC (6 h): 79 mg/dL | TG (6 h): 50.4 mg/dL | TP (6 h): 5.4 g/dL | gamma-GTP (6 h): 1.4 IU/L | TERMINAL_BW (9 h): 210.4 g | APTT (9 h): 17.3 s | Bas (9 h): 0% | Eos (9 h): 0.8% | Fbg (9 h): 214 mg/dL | Hb (9 h): 12.9 g/dL | Ht (9 h): 38.2% | Lym (9 h): 79.4% | MCH (9 h): 21.4 pg | MCHC (9 h): 33.9% | MCV (9 h): 63.1 fL | Mono (9 h): 2.6% | Neu (9 h): 17% | PT (9 h): 13.6 s | Plat (9 h): 115.4 x10_4/uL | RBC (9 h): 605 x10_4/ul | Ret (9 h): 8.2% | WBC (9 h): 82.6 x10_2/uL | KIDNEY_L (9 h): 1 g | KIDNEY_R (9 h): 1 g | KIDNEY_TOTAL (9 h): 2 g | LIVER (9 h): 8.7 g | A/G (9 h): 1.6 | ALP (9 h): 1051.6 IU/L | ALT (9 h): 30.8 IU/L | AST (9 h): 63 IU/L | BUN (9 h): 11.4 mg/dL | CRE (9 h): 0.3 mg/dL | Ca (9 h): 10.6 mg/dL | Cl (9 h): 103.8 meq/L | DBIL (9 h): 0.07 mg/dL | GLC (9 h): 200.2 mg/dL | IP (9 h): 10.3 mg/dL | K (9 h): 3.8 meq/L | LDH (9 h): 132.4 IU/L | Na (9 h): 141.6 meq/L | PL (9 h): 140.6 mg/dL | RALB (9 h): 3.3 g/dL | TBIL (9 h): 0.1 mg/dL | TC (9 h): 75 mg/dL | TG (9 h): 43 mg/dL | TP (9 h): 5.4 g/dL | gamma-GTP (9 h): 1.2 IU/L | TERMINAL_BW (24 h): 223.4 g | APTT (24 h): 18.9 s | Bas (24 h): 0% | Eos (24 h): 0.8% | Fbg (24 h): 204.6 mg/dL | Hb (24 h): 13.3 g/dL | Ht (24 h): 40% | Lym (24 h): 76.2% | MCH (24 h): 21.5 pg | MCHC (24 h): 33.3% | MCV (24 h): 64.5 fL | Mono (24 h): 2.4% | Neu (24 h): 19.8% | PT (24 h): 12.7 s | Plat (24 h): 125.2 x10_4/uL | RBC (24 h): 621 x10_4/ul | Ret (24 h): 7.3% | WBC (24 h): 85.6 x10_2/uL | KIDNEY_L (24 h): 1 g | KIDNEY_R (24 h): 1 g | KIDNEY_TOTAL (24 h): 1.9 g | LIVER (24 h): 10.9 g | A/G (24 h): 1.8 | ALP (24 h): 958.6 IU/L | ALT (24 h): 42.8 IU/L | AST (24 h): 64.8 IU/L | BUN (24 h): 14.6 mg/dL | CRE (24 h): 0.4 mg/dL | Ca (24 h): 10.9 mg/dL | Cl (24 h): 103.8 meq/L | DBIL (24 h): 0.1 mg/dL | GLC (24 h): 208 mg/dL | IP (24 h): 8.1 mg/dL | K (24 h): 4.2 meq/L | LDH (24 h): 119.8 IU/L | Na (24 h): 141.4 meq/L | PL (24 h): 144.6 mg/dL | RALB (24 h): 3.4 g/dL | TBIL (24 h): 0.2 mg/dL | TC (24 h): 76.8 mg/dL | TG (24 h): 102 mg/dL | TP (24 h): 5.4 g/dL | gamma-GTP (24 h): 1.4 IU/L
